Data on 14 compounds can be found in patent US4906624A, “6-(((Substituted)pyridin-3-yl)alkyl)-and alkenyl)-tetrahydro-4-hydroxypyran-2-one inhibitors of cholesterol biosynthesis” (Warner-Lambert Company, priority 1988, dated 1990).

Structures can show the parent of a compound that is named as a salt.

In the first assay the test system is Cholesterol Synthesis. The assay can be described thus: AICS screen: inhibition of cholesterol synthesis in rats (plasma [14C]cholesterol after sodium [1-14C]-acetate). It counts as in vivo. Conditions: 1.0 mg/kg, single dose, oral gavage, male Sprague-Dawley rats fed 5% cholestyramine; acetate one hour after drug, blood after 50 minutes. On the procedure:
The ability of compounds of the present invention to inhibit the biosynthesis of cholesterol was also measured by a method (designated AICS screen) which utilizes the procedure described by A. W. Alberts et al, Proc. Natl. Acad. Sci., (1980), 77, pp 3957-3961.
In this method male Sprague-Dawley rats (200 g body weight) previously fed 5% cholestyramine for three days were randomly divided into groups (N=5/group) and given a single dose of vehicle (controls) or compound by an oral gavage at the indicated doses. One hour after drug dosing, all rats were injected intraperitoneally with sodium[1-^14 C]-acetate (18.75 μCi/rat in 0.2 ml saline). After 50 minutes, blood samples were taken, plasma obtained by centrifugation, and plasma [^14 C]cholesterol measured after saponification and extraction.
Regarding `CCCNC(=O)c1c(C(C)C)nc(C(C)C)c(/C=C/C2CC(O)CC(=O)O2)c1-c1ccc(F)cc1` (stereo not drawn) [Example 32, [2α,4α(E)]-4-(4-fluorophenyl)-2,6-bis(1-methylethyl)-n-propyl-5-[2-(tetrahydro-4-hydroxy-6-oxo-2H-pyran-2-yl)ethenyl]-3-pyridinecarboxamide], the “% Inhibition of Cholesterol Synthesis” value is listed as -25%.

The assay is the same for the next values; noted with them: Rattus norvegicus, 50 min; 1.0 mg/kg, single dose, oral gavage, male Sprague-Dawley rats fed 5% cholestyramine; acetate one hour after drug, blood after 50 minutes.
With `Cc1cc(-c2ccc(F)cc2)c(/C=C/[C@@H](O)C[C@@H](O)CC(=O)O)c(C(C)C)n1` (relative stereo) [Example 21, [R*,S*-(E)]-7-[4-(4-fluorophenyl)-6-methyl-2-(1-methylethyl)-3-pyridinyl]-3,5-dihydroxy-6-heptenoic acid, hemicalcium salt], the change in vivo at 1 mg/kg is -67%.
Still for that read-out and setting: the value for `COc1c(C)nc(C(C)C)c(/C=C/[C@@H]2C[C@@H](O)CC(=O)O2)c1-c1ccc(F)cc1` (relative stereo) [Example 38, [4α,6β(E)]-6-[2-[4-(4-fluorophenyl)-5-methoxy-6-methyl-2-(1-methylethyl)-3-pyridinyl]ethenyl]tetrahydro-4-hydroxy-2H-pyran-2-one] was -67%.
Take `COC(=O)c1c(C(C)C)nc(C(C)C)c(/C=C/[C@@H]2C[C@@H](O)CC(=O)O2)c1-c1ccc(F)cc1` (relative stereo) [Example 13, [2α,4β-(E)]-4-(4-fluorophenyl)-2,6-bis(1-methylethyl)-5-[2-(tetrahydro-4-hydroxy-6-oxo-2H-pyran-2-yl)ethenyl]-3-pyridinecarboxylic acid, methyl ester]: the change in vivo at 1 mg/kg is -67%.
With `Cc1cc(-c2ccc(F)cc2)c(/C=C/[C@@H]2C[C@@H](O)CC(=O)O2)c(C(F)(F)F)n1` (relative stereo) [Example 22, [4α,6β(E)]-6-[2-[4-(4-fluorophenyl)-6-methyl-2-(trifluoromethyl)-3-pyridinyl]ethenyl]tetrahydro-4-hydroxy-2H-pyran-2-one], the change in vivo at 1 mg/kg is -59%.
Regarding `Cc1cc(-c2ccc(F)cc2)c(/C=C/[C@@H]2C[C@@H](O)CC(=O)O2)c(C(C)C)n1` (relative stereo) [Example 19, [4α,6β(E)]-6-[2-[4-(4-fluorophenyl)-6-methyl-2-(1-methylethyl)-3-pyridinyl]ethenyl]tetrahydro-4-hydroxy-2H-pyran-2-one], the change in vivo at 1 mg/kg was -72%.
On the same count and under the same terms, the value for `CC(C)c1cc(-c2ccc(F)cc2)c(/C=C/[C@@H]2C[C@@H](O)CC(=O)O2)c(C(C)C)n1` (relative stereo) [Example 15] was -55%.
The same measure, in the same setting: under `CCc1nc(CC)c(CO)c(-c2ccc(F)cc2)c1/C=C/[C@@H]1C[C@@H](O)CC(=O)O1` (relative stereo) [Example 36] stands -68%.
With `CC(C)c1nc(-c2ccccc2)cc(-c2ccc(F)cc2)c1/C=C/[C@@H]1C[C@@H](O)CC(=O)O1` (relative stereo) [Example 30, [4α,6β(E)]-6-[2-[4-(4-fluorophenyl)-2-(1-methylethyl)-6-phenyl-3-pyridinyl]ethenyl]tetrahydro-4-hydroxy-2H-pyran-2-one], the change in vivo at 1 mg/kg was -64%.
For `O=C1C[C@H](O)C[C@@H](/C=C/c2c(-c3ccc(F)cc3)cc(C(F)F)nc2C(F)(F)F)O1` (relative stereo) [Example 24], the change in vivo at 1 mg/kg is -54%.
As to `C=Cc1c(C)nc(C(C)C)c(/C=C/[C@@H]2C[C@@H](O)CC(=O)O2)c1-c1ccc(F)cc1` (relative stereo) [Example 40, [4α,6β(E)]-6-[2-[5-ethenyl-4-(4-fluorophenyl)-6-methyl-2-(1-methylethyl)-3-pyidinyl]ethenyl]tetrahydro-4-hydroxy-2H-pyran-2-one], the change in vivo at 1 mg/kg is -68%.

The assay is the same for the next values; noted with them: Rattus norvegicus, 50 min; 1.5 mg/kg, single dose, oral gavage, male Sprague-Dawley rats fed 5% cholestyramine; acetate one hour after drug, blood after 50 minutes.
As for `Cc1cc(C)c(/C=C/[C@@H]2C[C@@H](O)CC(=O)O2)c(-c2ccc(F)cc2)n1` (relative stereo) [Example 28, [4α,6β(E)]-6-[2-[2-(4-fluorophenyl)-4,6-dimethyl-3-pyridinyl]ethenyl]tetrahydro-4-hydroxy-2H-pyran-2-one], the change in vivo at 1.5 mg/kg is -64%.
Still for that read-out and setting: the value for `COC(=O)c1c(C(C)C)nc(C)c(/C=C/[C@@H]2C[C@@H](O)CC(=O)O2)c1-c1ccc(F)cc1` (relative stereo) [Example 9] was -55%.
`CCOC(=O)c1c(C)nc(C)c(/C=C/[C@@H]2C[C@@H](O)CC(=O)O2)c1-c1ccc(F)cc1` (relative stereo) [Example 11, [4α,6β-(E)]-4-(4-fluorophenyl)-2,6-dimethyl-5-[2-(tetrahydro-4-hydroxy-6-oxo-2H-pyran-2-yl)ethenyl]-, ethyl ester, 3-pyridinecarboxylic acid]: the change in vivo at 1.5 mg/kg was -41%.
